Measured values from PubChem BioAssay (NCI).
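These data come from cells grown in 96-well plates and exposed to compound for 48 hours at five concentrations. GI50 is the concentration that inhibits growth by half. TGI: total growth inhibition.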

Assays:
Assay in all cases: growth of human tumour cells (NCI), 48 h
[1] = tested on: HL-60(TB) leukemia
[2] = tested on: HCC-2998 colon
[3] = tested on: NCI-H226 lung
[4] = tested on: SF-539 CNS
[5] = tested on: HCT-116 colon
[6] = tested on: SF-268 CNS
[7] = tested on: MDA-MB-435
[8] = tested on: HOP-92 NSCLC
[9] = tested on: OVCAR-5 ovarian
[10] = tested on: M14 melanoma
[11] = tested on: NCI-H23 lung
[12] = tested on: SNB-19 CNS
[13] = tested on: HOP-62 NSCLC
[14] = tested on: SN12C renal
[15] = tested on: TK-10 renal
[16] = tested on: NCI-H522 lung
[17] = tested on: A549 NSCLC
[18] = tested on: MOLT-4 leukemia
[19] = tested on: SK-MEL-28 melanoma
[20] = tested on: SK-OV-3 ovarian
[21] = tested on: COLO 205 colon
[22] = tested on: 786-0 renal
[23] = tested on: BT-549 breast
[24] = tested on: SR leukemia
[25] = tested on: DU-145 prostate
[26] = tested on: MALME-3M melanoma
[27] = tested on: NCI/ADR-RES ovarian
[28] = tested on: EKVX NSCLC
[29] = tested on: UO-31 renal
[30] = tested on: SW-620 colon
[31] = tested on: OVCAR-8 ovarian
[32] = tested on: SK-MEL-5 melanoma
[33] = tested on: MCF7 breast
[34] = tested on: IGROV1 ovarian
[35] = tested on: MDA-MB-231 breast
[36] = tested on: RPMI-8226 leukemia
[37] = tested on: KM12 colon
[38] = tested on: SF-295 CNS
[39] = tested on: HS 578T breast
[40] = tested on: HCT-15 colon
[41] = tested on: A498 renal
[42] = tested on: NCI-H460 lung
[43] = tested on: U251 CNS
[44] = tested on: K-562 leukemia
[45] = tested on: OVCAR-3 ovarian
[46] = tested on: PC-3 prostate
[47] = tested on: HT29 colon
[48] = tested on: UACC-62 melanoma
[49] = tested on: SK-MEL-2 melanoma
[50] = tested on: LOX IMVI melanoma
[51] = tested on: OVCAR-4 ovarian
[52] = tested on: ACHN renal
[53] = tested on: CCRF-CEM leukemia

COC(=O)[C@@H](C)C[C@H](Cc1ccccc1)NC(=O)c1csc([C@@H](C[C@H](C(C)C)N(C)C(=O)[C@@H](NC(=O)[C@H]2CCCCN2C)C(C(F)(F)F)C(F)(F)F)OC(C)=O)n1
GI50 [1]: 13.4 nM
TGI [1]: 115 nM
GI50 [2]: 74.7 nM
TGI [2]: > 16700 nM
GI50 [3]: 3940 nM
TGI [3]: > 16700 nM
GI50 [4]: 39.7 nM
TGI [4]: 154 nM
GI50 [5]: 57 nM
TGI [5]: > 16700 nM
GI50 [6]: 108 nM
TGI [6]: > 16700 nM
GI50 [7]: 4.37 nM
TGI [7]: 21.9 nM
GI50 [8]: 18.5 nM
TGI [8]: 1040 nM
GI50 [9]: 64.3 nM
TGI [9]: > 16700 nM
GI50 [10]: 33.3 nM
TGI [10]: 115 nM
GI50 [11]: 62.4 nM
TGI [11]: > 16700 nM
GI50 [12]: 65.8 nM
TGI [12]: > 16700 nM
GI50 [13]: 65.1 nM
TGI [13]: > 16700 nM
GI50 [14]: 106 nM
TGI [14]: > 16700 nM
GI50 [15]: 4600 nM
TGI [15]: > 16700 nM
GI50 [16]: 12.5 nM
TGI [16]: 264 nM
GI50 [17]: 114 nM
TGI [17]: > 16700 nM
GI50 [18]: 63.1 nM
TGI [18]: > 16700 nM
GI50 [19]: 102 nM
TGI [19]: > 16700 nM
GI50 [20]: 70 nM
TGI [20]: > 16700 nM
GI50 [21]: 65.8 nM
TGI [21]: 556 nM
GI50 [22]: 53.5 nM
TGI [22]: 3530 nM
GI50 [23]: 54 nM
TGI [23]: 779 nM
GI50 [24]: 7.43 nM
TGI [24]: > 16700 nM
GI50 [25]: 47 nM
TGI [25]: > 16700 nM
GI50 [26]: 43.7 nM
TGI [26]: > 16700 nM
GI50 [27]: 346 nM
TGI [27]: > 16700 nM
GI50 [28]: 102 nM
TGI [28]: > 16700 nM
GI50 [29]: 224 nM
TGI [29]: > 16700 nM
GI50 [30]: 67.3 nM
TGI [30]: > 16700 nM
GI50 [31]: 92.7 nM
TGI [31]: > 16700 nM
GI50 [32]: 27.5 nM
TGI [32]: 1810 nM
GI50 [33]: 11.8 nM
TGI [33]: > 16700 nM
GI50 [34]: 66.6 nM
TGI [34]: > 16700 nM
GI50 [35]: 73.4 nM
TGI [35]: 3060 nM
GI50 [36]: 59 nM
TGI [36]: 3220 nM
GI50 [37]: 44.8 nM
TGI [37]: 13900 nM
GI50 [38]: 36.8 nM
TGI [38]: > 16700 nM
GI50 [39]: 47 nM
TGI [39]: 15400 nM
GI50 [40]: 64.5 nM
TGI [40]: > 16700 nM
GI50 [41]: 82.9 nM
TGI [41]: > 16700 nM
GI50 [42]: 57.6 nM
TGI [42]: > 16700 nM
GI50 [43]: 65.5 nM
TGI [43]: > 16700 nM
GI50 [44]: 12.4 nM
TGI [44]: > 16700 nM
GI50 [45]: 21 nM
TGI [45]: 253 nM
GI50 [46]: 45.2 nM
TGI [46]: 3870 nM
GI50 [47]: 49.5 nM
TGI [47]: 256 nM
GI50 [48]: 15.4 nM
TGI [48]: > 16700 nM
GI50 [49]: 77.7 nM
TGI [49]: > 16700 nM
GI50 [50]: 53 nM
TGI [50]: > 16700 nM
GI50 [51]: 309 nM
TGI [51]: > 16700 nM
GI50 [52]: 111 nM
TGI [52]: > 16700 nM
GI50 [53]: 53.9 nM
TGI [53]: 9050 nM
